According to PubChem BioAssay (NCI):
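Five concentrations, 48 hours, 96-well plates. Here, GI50 denotes the concentration required for 50% inhibition of growth. TGI denotes the concentration required for complete inhibition of growth.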

Assays:
Test in all cases: DTP human tumour cell line panel, 48 h
A549 NSCLC = test system: A549 NSCLC
HCT-15 colon = test system: HCT-15 colon
HOP-62 NSCLC = test system: HOP-62 NSCLC
K-562 leukemia = test system: K-562 leukemia
KM12 colon = test system: KM12 colon
MALME-3M melanoma = test system: MALME-3M melanoma
NCI-H226 lung = test system: NCI-H226 lung
NCI-H522 lung = test system: NCI-H522 lung
OVCAR-4 ovarian = test system: OVCAR-4 ovarian
PC-3 prostate = test system: PC-3 prostate
RXF 393 renal = test system: RXF 393 renal
SK-MEL-2 melanoma = test system: SK-MEL-2 melanoma
UACC-257 melanoma = test system: UACC-257 melanoma
CAKI-1 renal = test system: CAKI-1 renal
DMS 114 small cell lung = test system: DMS 114 small cell lung

Compound	TGI (A549 NSCLC) [µM]	TGI (HCT-15 colon) [µM]	TGI (HOP-62 NSCLC) [µM]	TGI (K-562 leukemia) [µM]	TGI (KM12 colon) [µM]	TGI (MALME-3M melanoma) [µM]	TGI (NCI-H226 lung) [µM]	TGI (NCI-H522 lung) [µM]	TGI (OVCAR-4 ovarian) [µM]	TGI (PC-3 prostate) [µM]	TGI (RXF 393 renal) [µM]	TGI (SK-MEL-2 melanoma) [µM]	TGI (UACC-257 melanoma) [µM]	TGI (CAKI-1 renal) [µM]	TGI (DMS 114 small cell lung) [µM]	GI50 (A549 NSCLC) [µM]	GI50 (HCT-15 colon) [µM]	GI50 (K-562 leukemia) [µM]	GI50 (NCI-H522 lung) [µM]	GI50 (UACC-257 melanoma) [µM]
COc1cc(CC2CCc3nc(N)nc(N)c3C2)cc(OC)c1OC (stereo not given)	> 100	> 100	69.7	> 100	> 100	28.4	> 66.1	17	> 100	> 100	11.9	> 56.6	> 63.1							
CCSC(=Nc1ccccc1)SC	> 100	> 100	> 100	> 100	> 100	> 100	> 100	> 100	> 100		> 100	> 100	> 100	> 100	> 100					
CC(N)Cc1cccc(C(F)(F)F)c1 (stereo not given)	> 100	> 100	> 100	> 100	> 100	> 100	> 100	> 100	> 100		> 100	> 100	> 100	> 100	> 100					
N#CN=Nc1cc(Cl)c(N=NC#N)cc1Cl	> 100	> 100	> 100	> 100	> 100	> 100	> 100	> 100	> 100		> 100	> 100	> 100		> 100					
C#CCCCC(=C)C[C@H](OCc1ccccc1)[C@H]1OC(=O)[C@@H]1C	> 100	> 100	> 100		> 100		> 100		> 100	> 100	> 100	> 100	> 100	46.5						
NC(=O)/N=C(\N)NC(=O)c1ccccc1	> 100	> 100	> 100	> 100	> 100	> 100	> 100	> 100		> 100	> 100	> 100	> 100	> 100						
CN(C)CCOc1cc2c(c3ccccc13)-c1ccccc1C2=O	22	4.19	3.95	4.7	3.03	5.15	5.69	3.08	2.68		5.3	3.44	3.17	6.31	2.65					
COC(=O)c1cccc(NC(=O)Nc2ccc3oc(=O)c4ccccc4c3c2)c1	> 100	> 100		> 100				> 100					> 100			> 100	> 100	> 100	4.91	> 100
Cc1nc(Nc2nnc(-c3cc([N+](=O)[O-])cc([N+](=O)[O-])c3C)o2)sc1C(=O)CC(=O)Cc1nc2ccc(Cl)cc2[nH]c1=O	> 100	> 100	> 100	> 100	> 100		> 100	> 100	> 100		> 100	> 100	> 100	> 100	> 100					
CO/C(=N/N1CC1C(F)(F)F)c1ccncc1 (stereo not given)		> 100	> 100	> 100	> 100	> 100	> 100	> 100	> 100		> 100	> 100		> 100						
O=C(CCl)N1CCCCC1C1(c2cc3ccccc3[nH]2)OCCO1 (stereo not given)	23.3	33.9	20.6	15.9	8.48	14.5	16.3	0.448	9.28	8.83	12.8	20.2	13.1	1.86						
